In patent US8652540B2, “Method of using rhein for treating fibrotic conditions and tumors” (priority 2012, dated 2014):
Marks after values point to notes of the source that are not given here.

Key:
[1] = Body weights and tolerability of mice given Rhein orally; assay type: in vivo, C57BL6 mice
Protocol: (§1) C57BL6 mice at age of 6 to 8 weeks with body weight in the range of 20 to 24 grams were used in these experiments. Mice were randomly assigned into 5 groups. Control group received saline injections only; Rhein group was fed with Rhein (≧98% pure) dissolved in 0.5% sodium carboxymethyl cellulose (Sigma, USA) in a single dose of 0.4 mL at 50 mg/kg/day for 6 weeks; Cerulein group received 6 cerulein injections at 50 μg/kg three times a week for 6 weeks; Cer+Rh 6w group received cerulein injections same as Cerulein group plus oral gavage of a single dose of Rhein at 50 mg/kg/day from the first day of experimental period till the end in a total of 6 weeks; Cer+Rh 3w group received cerulein injections same as Cerulein group and Cer+Rh 6w group, but was given with Rhein at 50 mg/kg/day starting the first day of week 4 till the end of experiment in a total of 3 weeks (n=6/group). Upon scarification, pancreata were immediately removed, weighed, trimmed from fat and fixed in 4% paraformaldehyde-phosphate buffered saline (PBS) overnight at 4° C. Samples were then processed, embedded in paraffin wax, sectioned and subjected to Hematoxylin-eosin (H & E) staining or Sirius Red staining Levels of TNF-α· in animal serum samples were determined using commercial ELISA kits. Proteins extracted from pancreatic tissues were subjected to Western blotting analyses.

TNF-α = experiment: Serum TNF-α by ELISA, cerulein-induced chronic pancreatitis mice; assay type: in vivo, C57BL6 mice
Protocol: as §1

[2] = Pancreatic weight and H&E histology, cerulein-induced chronic pancreatitis mice; assay type: in vivo, C57BL6 mice
Protocol: as §1

α-SMA [3] = experiment: α-SMA expression in pancreatic tissues (immunofluorescence, Western blotting), cerulein-treated mice; assay type: in vivo, C57BL6 mice; conditions: Rhein oral 50 mg/kg/day for 6 weeks
Protocol: as §1

collagen = experiment: Sirius Red staining of collagenous proteins in pancreas of CP mice; assay type: in vivo, C57BL6 mice
Protocol: as §1

fibronectin 1 (FN1) = experiment: Western blotting of fibronectin in pancreatic tissues of CP mice; assay type: in vivo, C57BL6 mice; conditions: CP mice treated with Rhein vs non-Rhein-treated CP mice
Protocol: as §1

LTC-14 cells [4] = assay type: cell-based
Protocol: LTC-14 cells were cultured at 37° C. under a humidified condition of 95% air and 5% CO2 in IMDM supplemented with 10% fetal bovine serum (FBS). Cells used in all the experiment were among passages 9 to 22. LTC-14 cells were seeded at a density of 1×10^4/well in a 96-well plate, and incubated with different concentrations of Rhein (dissolved in DMSO) for 24 hours. MTT reagent was added to the cells at the end of the 24-hour treatment period. After a 3-hour reaction time, MTT products were dissolved in DMSO and OD at 570 nm was taken.

Tgf-β1 = experiment: Real-time PCR, TGF-β-stimulated LTC-14 cells: Tgf-β1; assay type: cell-based, rat; conditions: Rhein at 1, 10 and 100 μM; TGF-β 5 ng/mL
Text: (§2) The synthesized cDNA template was applied to amplifications with rat-specific primers for Tgf-β1, Acta2, Col1-α1 and Mmp2 in a real-time PCR sequencer. Expression of the gene of interest was expressed as a Ct value and normalized to the internal control Gapdh. […] After amplifications by real-time PCR, expression of the gene of interest was expressed as a Ct value and normalized to the internal control Gapdh.

Acta2 = experiment: Real-time PCR, TGF-β-stimulated LTC-14 cells: Acta2; assay type: cell-based, rat; conditions: Rhein at 1, 10 and 100 μM; TGF-β 5 ng/mL
Text: as §2

Col1-α1 = experiment: Real-time PCR, TGF-β-stimulated LTC-14 cells: Col1-α1; assay type: cell-based, rat; conditions: Rhein at 1, 10 and 100 μM; TGF-β 5 ng/mL
Text: as §2

Fn1 = experiment: Expression of Fn1 in TGF-β-stimulated LTC-14 cells; assay type: cell-based, rat; conditions: recombinant TGF-β
α-SMA [5] = experiment: Immunofluorescence assay for α-SMA in TGF-β-stimulated LTC-14 cells; assay type: cell-based, rat; conditions: TGF-β 5 ng/mL, Rhein 10 μM
Protocol: To study the effect of Rhein on TGF-β induced expression of fibrotic filament formation, LTC-14 cells were grown on poly-L-lysine coated glass coverslips at a density of 1×10^5 in a 24-well plate pre-incubated with TGF-β (5 ng/mL) for 24 hours before the treatment with or without Rhein (10 μM). At the time of harvest, cells were subjected to immunofluorescence assay for α-SMA immunoreactivities.

LTC-14 cells [6] = experiment: TGF-β induced transformation of PSCs to myofibroblast-like cells (light microscope); assay type: cell-based, rat; conditions: TGF-β 5 ng/mL, Rhein 10 μM
Protocol: To study the effect of Rhein on TGF-β induced transformation of PSCs to myofibroblast-like cells, LTC-14 cells were grown at a density of 1×10^5 in a 24-well plate, pre-incubated with TGF-β (5 ng/mL) for 24 hours and treated with or without Rhein (10 μM). At the time of harvest, cells were examined with morphological alterations under a light microscope.

[7] = Rhein group: 50 mg/kg/day oral for 6 weeks, no cerulein

O=C(O)c1cc(O)c2c(c1)C(=O)c1cccc(O)c1C2=O [Rhein, 9,10-Dihydro-4,5-dihydroxy-9,10-dioxo-2-anthracenecarboxylic acid]
Body wt (g), Mean ([1]; Cer + Rh 3 wk: cerulein injections plus Rhein 50 mg/kg/day from week 4, 3 weeks): 24.07* g
Body wt (g), Mean ([1]; Cer + Rh 6 wk: cerulein injections plus Rhein 50 mg/kg/day oral gavage for 6 weeks): 23.98* g
Body wt (g), Mean [1, 7]: 26.10 g
adverse effects ([1]; oral administration, animal study): no adverse effects
TNF-α (ng/mL), Mean (TNF-α; Cer + Rh 3 wk: cerulein plus Rhein 50 mg/kg/day from week 4, 3 weeks): 32.52# ng/mL
TNF-α (ng/mL), Mean (TNF-α; Cer + Rh 6 wk: cerulein plus Rhein 50 mg/kg/day for 6 weeks): 31.18# ng/mL
TNF-α (ng/mL), Mean (TNF-α; [7]): 14.43 ng/mL
histology of pancreatic tissues (acinar loss, lymphocyte infiltration, fibrosis) ([2]; CP mice, Rhein oral 50 mg/kg/day, H&E): less acinar loss (FIG. 1), lymphocyte infiltration and fibrosis
pancreatic weight ([2]; cerulein-induced pancreatitis mice, vs Cerulein group): significant restoration of pancreatic weight
expression of α-SMA in the pancreatic tissues (α-SMA [3]): significantly inhibits
amounts of collagenous protein (collagen): notably reduced
protein expression levels of fibronectin (fibronectin 1 (FN1)): remarkably decreased
PSC proliferation (LTC-14 cells [4]; in vitro, dose-dependent): suppress PSC proliferation
LD50 (cytotoxicity) (LTC-14 cells [4]; rat, 24 h): approximately 130 μM
TGF-β-elevated mRNA expression level of Tgf-β1 (Tgf-β1): significantly repressed
TGF-β-elevated mRNA expression level of Acta2 (Acta2): significantly repressed
TGF-β-elevated mRNA expression level of Col1-α1 (Col1-α1): significantly repressed
TGF-β-stimulated expression level of Fn1 (Fn1): suppresses
α-SMA expression (immunofluorescent staining) (α-SMA [5]): remarkably suppresses
transformation of LTC-14 cells into myofibroblast-like phenotype (LTC-14 cells [6]): represses the transformation
